Assay results: paper PMC9271048, “Probing strigolactone perception mechanisms with rationally designed small-molecule agonists stimulating germination of root parasitic weeds” (Nature Communications, 2022)
Read-outs that look alike come from different tables or passages of the source.

Columns and labels:
[1] = molecular target: T1, ShHTL7 (Striga hermonthica, UniProt A0A0M3PNA2); assay: biochemical; format: binding; settings: Supplementary Table 7; binding affinities between ShHTL7 and agonists by SPR; read-out: KD/μM
Procedure, shortened: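 Surface plasmon resonance was run at 25 °C on ShHTL7 immobilized by amine coupling, using phosphate-buffered saline with 0.05% P20 and 0.5% DMSO. Each injection had 1 min association and 1 min dissociation, with a 50 μM screen followed by concentration series. KD was derived by kinetic analysis or steady-state affinity.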

[2] = molecular target: T1, ShHTL7; assay: Competitive inhibition of ShHTL7 with Yoshimulactone Green (YLG) as substrate; format: biochemical
Procedure, shortened: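 YLG hydrolysis by ShHTL7 followed by fluorescence (ex 480/em 520 nm) every 1 min for 30 min; compounds and YLG from fresh DMSO stocks. After subtracting no-enzyme background, the linear 8-min increase was used; IC50 fitted from relative inhibition versus compound concentration.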

[3] = system: P. aegyptiaca seeds; assay: P. aegyptiaca seed germination assay; format: in vivo, Phelipanche aegyptiaca; parameters: P. aegyptiaca seed germination activity, source data average: unit of the concentration uncertain; settings: for P. aegyptiaca seed germination activity, source data average: Supplementary Fig. 9b
Procedure, shortened: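 P. aegyptiaca seeds, sterilized in 1% NaClO, preconditioned in the dark at 25 °C for 4 days on glass-fiber discs, then given test compound in water with 1‰ acetone. Incubated dark at 25 °C for a week; germination scored under ×20 magnification, three biological repeats; rac-GR24 positive control.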

[4] = system: ShHTLs (10 HTL proteins in S. hermonthica); assay: YLG-based competition assay on HTL proteins of S. hermonthica; format: biochemical, Striga hermonthica; settings: Supplementary Fig. 27
Excerpt: In P. aegyptiaca, 5 KAI2s have been proposed as the SL receptors for the regulation of seed germination. […] The high sequence similarity may explain the consistency of these compounds in inducing germination in both S. hermonthica and P. aegyptiaca.
The excitation and emission wavelengths of YLG are 480 and 520 nm, respectively. We used a fluorescence spectrophotometer (CARY Eclipse) to detect the fluorescence intensity change of YLG during the enzymatic hydrolysis assay process. All the testing compounds and YLG were dissolved in DMSO and prepared as stock solutions just before use. […] The changes of fluorescence at 520 nm of each well were recorded every 1 min for 30 min. Using the reaction mixture without adding enzyme and tested compounds as the background control. After subtracting the background hydrolysis, a linear fluorescence increase in 8 min was used for further inspection. The IC50 values were determined via fitting relative inhibition percentages with the varying concentrations of compounds in Microsoft Excel.
Supplementary Fig. 27. Binding of compounds 4a, (R)- and (S)-4a, and 4g-i to the HTL proteins in S. hermonthica and KAI2 protein homologs in P. aegyptiaca. In the competitive inhibitory activity assay, YLG (3 µM) was used as the fluorogenic substrate. Error bar indicates SD (n = 3 biologically independent experiments).
(1 picture or pasted object on this page, not shown here)

[5] = ShHTL7, YLG competition, Supplementary Fig. 27, read-out: IC50, replicate 1
[6] = ShHTL7, YLG competition, Supplementary Fig. 27, read-out: IC50, replicate 2
[7] = ShHTL7, YLG competition, Supplementary Fig. 27, read-out: IC50, replicate 3
[8] = wild-type ShHTL7, average of 3, source data of Fig. 2a,b, Supplementary Figs. 8a, 9a, 20b, read-out: IC50, competitive ShHTL7 inhibition (YLG), source data average
[9] = ShHTL2, YLG competition, read-out: IC50, replicate 1
[10] = ShHTL2, YLG competition, read-out: IC50, replicate 2
[11] = ShHTL2, YLG competition, read-out: IC50, replicate 3
[12] = ShHTL2, average of 3 replicates, read-out: IC50, average
[13] = ShHTL3, YLG competition, read-out: IC50, replicate 1
[14] = ShHTL3, YLG competition, read-out: IC50, replicate 2
[15] = ShHTL3, YLG competition, read-out: IC50, replicate 3
[16] = ShHTL3, average of 3 replicates, read-out: IC50, average
[17] = ShHTL4, YLG competition, read-out: IC50, replicate 1
[18] = ShHTL4, YLG competition, read-out: IC50, replicate 2
[19] = ShHTL4, YLG competition, read-out: IC50, replicate 3
[20] = ShHTL4, average of 3 replicates, read-out: IC50, average
[21] = ShHTL5, YLG competition, read-out: IC50, replicate 1
[22] = ShHTL5, YLG competition, read-out: IC50, replicate 2
[23] = ShHTL5, YLG competition, read-out: IC50, replicate 3
[24] = ShHTL5, average of 3 replicates, read-out: IC50, average
[25] = ShHTL6, YLG competition, read-out: IC50, replicate 1
[26] = ShHTL6, YLG competition, read-out: IC50, replicate 2
[27] = ShHTL6, YLG competition, read-out: IC50, replicate 3
[28] = ShHTL6, average of 3 replicates, read-out: IC50, average
[29] = ShHTL8, YLG competition, read-out: IC50, replicate 1
[30] = ShHTL8, YLG competition, read-out: IC50, replicate 2
[31] = ShHTL8, YLG competition, read-out: IC50, replicate 3
[32] = ShHTL8, average of 3 replicates, read-out: IC50, average
[33] = ShHTL9, YLG competition, read-out: IC50, replicate 1
[34] = ShHTL9, YLG competition, read-out: IC50, replicate 2
[35] = ShHTL9, YLG competition, read-out: IC50, replicate 3
[36] = ShHTL9, average of 3 replicates, read-out: IC50, average
[37] = ShHTL10, YLG competition, read-out: IC50, replicate 1
[38] = ShHTL10, YLG competition, read-out: IC50, replicate 2
[39] = ShHTL10, YLG competition, read-out: IC50, replicate 3
[40] = ShHTL10, average of 3 replicates, read-out: IC50, average
[41] = ShHTL11, YLG competition, read-out: IC50, replicate 1
[42] = ShHTL11, YLG competition, read-out: IC50, replicate 2
[43] = ShHTL11, YLG competition, read-out: IC50, replicate 3
[44] = ShHTL11, average of 3 replicates, read-out: IC50, average

T1 sequence (A0A0M3PNA2 entry or part of it): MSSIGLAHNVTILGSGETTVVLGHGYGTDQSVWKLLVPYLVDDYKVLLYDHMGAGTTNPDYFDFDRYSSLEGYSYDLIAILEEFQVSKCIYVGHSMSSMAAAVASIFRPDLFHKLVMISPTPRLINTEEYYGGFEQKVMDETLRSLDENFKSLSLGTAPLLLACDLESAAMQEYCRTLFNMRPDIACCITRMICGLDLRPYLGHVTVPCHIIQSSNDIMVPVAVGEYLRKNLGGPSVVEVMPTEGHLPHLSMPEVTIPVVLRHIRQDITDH

**Q.** Which results are given for `CC1=CC(CC(=O)N2CCN(C(=O)COc3ccc(Br)cc3C)CC2)OC1=O` (stereo not shown) [4i]?
**A.** Kd [1]: 2.93 ± 0.087 µM; IC50 [2, 5]: 5.98 µM; IC50 [2, 6]: 5.2 µM; IC50 [2, 7]: 4.35 µM; IC50 [2, 8]: 5.18 µM; P. aegyptiaca seed germination activity, source data average ([3]; 0.1 (unit uncertain) as printed): 6.798%; P. aegyptiaca seed germination activity, source data average ([3]; 1 (unit uncertain) as printed): 17.2667%; P. aegyptiaca seed germination activity, source data average ([3]; 10 (unit uncertain) as printed): 39.4856%; IC50 [4, 9]: 50.6 µM; IC50 [4, 10]: 70.1 µM; IC50 [4, 11]: 65.1 µM; IC50 [4, 12]: 61.9 µM; IC50 [4, 13]: > 100 µM; IC50 [4, 14]: > 100 µM; IC50 [4, 15]: > 100 µM; IC50 [4, 16]: > 100 µM; IC50 [4, 17]: 15 µM; IC50 [4, 18]: 21.2 µM; IC50 [4, 19]: 16.4 µM; IC50 [4, 20]: 17.5 µM; IC50 [4, 21]: 48.9 µM; IC50 [4, 22]: 42.2 µM; IC50 [4, 23]: 43 µM; IC50 [4, 24]: 44.7 µM; IC50 [4, 25]: 79.2 µM; IC50 [4, 26]: 55 µM; IC50 [4, 27]: 69.4 µM; IC50 [4, 28]: 67.9 µM; IC50 [4, 29]: 72.8 µM; IC50 [4, 30]: 71.1 µM; IC50 [4, 31]: 75.4 µM; IC50 [4, 32]: 73.1 µM; IC50 [4, 33]: 22.6 µM; IC50 [4, 34]: 24.8 µM; IC50 [4, 35]: 12.7 µM; IC50 [4, 36]: 20.1 µM; IC50 [4, 37]: 69.6 µM; IC50 [4, 38]: 67.6 µM; IC50 [4, 39]: 57.8 µM; IC50 [4, 40]: 65 µM; IC50 [4, 41]: 91.9 µM; IC50 [4, 42]: 101 µM; IC50 [4, 43]: 86 µM; IC50 [4, 44]: 93 µM

**Q.** For `CC1=C[C@@H](OC(=O)N2CCN(C(=O)COc3ccc(Br)cc3C)CC2)OC1=O` [(R)-4a], which Kd [1] is on record?
**A.** Its Kd is 1.69 ± 0.04 µM.

**Q.** What about the IC50 [2, 5] of the same compound?
**A.** Its IC50 is 40.1 µM.

**Q.** What about the IC50 [2, 6] of the same compound?
**A.** Its IC50 is 33.7 µM.

**Q.** And the IC50 [2, 7]?
**A.** Its IC50 is 33.7 µM.

**Q.** And the IC50 ([2]; ShHTL7, average of 3 replicates, Supplementary Fig. 27, read-out: IC50, average)?
**A.** The IC50 was 35.8 µM.

**Q.** What about the IC50 ([2]; YLG as substrate, text and Fig. 2, read-out: IC50, competitive ShHTL7 inhibition (YLG assay)) of the same compound?
**A.** The IC50 was 35.8 ± 3.69 µM.

**Q.** And the IC50 [2, 8]?
**A.** Its IC50 is 35.8 µM.

**Q.** And the EC50 ([3]; Phelipanche aegyptiaca, source data of Fig. 2c and Supplementary Fig. 8b, average of 3, read-out: P. aegyptiaca germination EC50 values, source data average (converted))?
**A.** The EC50 was 1.27 µM.

**Q.** And the IC50 [4, 9]?
**A.** The IC50 was 69.7 µM.

**Q.** What about the IC50 [4, 10] of the same compound?
**A.** Its IC50 is 64.8 µM.

**Q.** And the IC50 [4, 11]?
**A.** The IC50 was 63.8 µM.

**Q.** And the IC50 [4, 12]?
**A.** Its IC50 is 66.1 µM.

**Q.** And the IC50 [4, 13]?
**A.** Its IC50 is 62.1 µM.

**Q.** And the IC50 [4, 14]?
**A.** Its IC50 is 76.7 µM.

**Q.** And the IC50 [4, 15]?
**A.** Its IC50 is 63.2 µM.

**Q.** What about the IC50 [4, 16] of the same compound?
**A.** Its IC50 is 67.3 µM.

**Q.** And the IC50 [4, 17]?
**A.** The IC50 was 22.9 µM.

**Q.** What about the IC50 [4, 18] of the same compound?
**A.** Its IC50 is 19.8 µM.

**Q.** What about the IC50 [4, 19] of the same compound?
**A.** The IC50 was 20.3 µM.

**Q.** And the IC50 [4, 20]?
**A.** The IC50 was 21 µM.

**Q.** What about the IC50 [4, 21] of the same compound?
**A.** The IC50 was 48.9 µM.

**Q.** And the IC50 [4, 22]?
**A.** Its IC50 is 46.9 µM.

**Q.** And the IC50 [4, 23]?
**A.** The IC50 was 35.9 µM.

**Q.** What about the IC50 [4, 24] of the same compound?
**A.** Its IC50 is 43.9 µM.

**Q.** And the IC50 [4, 25]?
**A.** The IC50 was > 100 µM.

**Q.** And the IC50 [4, 26]?
**A.** The IC50 was > 100 µM.

**Q.** What about the IC50 [4, 27] of the same compound?
**A.** The IC50 was > 100 µM.

**Q.** And the IC50 [4, 28]?
**A.** Its IC50 is > 100 µM.

**Q.** And the IC50 [4, 29]?
**A.** Its IC50 is 58.4 µM.

**Q.** And the IC50 [4, 30]?
**A.** Its IC50 is 53.3 µM.

**Q.** And the IC50 [4, 31]?
**A.** The IC50 was 69.9 µM.

**Q.** And the IC50 [4, 32]?
**A.** Its IC50 is 60.5 µM.

**Q.** What about the IC50 [4, 33] of the same compound?
**A.** Its IC50 is 50.2 µM.

**Q.** What about the IC50 [4, 34] of the same compound?
**A.** Its IC50 is 43.9 µM.

**Q.** What about the IC50 [4, 35] of the same compound?
**A.** The IC50 was 47.8 µM.

**Q.** And the IC50 [4, 36]?
**A.** The IC50 was 47.3 µM.

**Q.** And the IC50 [4, 37]?
**A.** The IC50 was 59.5 µM.

**Q.** What about the IC50 [4, 38] of the same compound?
**A.** The IC50 was 43.4 µM.

**Q.** And the IC50 [4, 39]?
**A.** Its IC50 is 54.6 µM.

**Q.** And the IC50 [4, 40]?
**A.** The IC50 was 52.5 µM.

**Q.** And the IC50 [4, 41]?
**A.** The IC50 was > 100 µM.

**Q.** And the IC50 [4, 42]?
**A.** Its IC50 is > 100 µM.

**Q.** And the IC50 [4, 43]?
**A.** The IC50 was > 100 µM.

**Q.** What about the IC50 [4, 44] of the same compound?
**A.** Its IC50 is > 100 µM.
